Tested on: CK19 protein release by viable epithelial cells (cell lines)
Experiment: CK19-EPISPOT assay with cycloheximide in cell-cultures
Assay type: cell-based, human
Conditions: cell lines incubated with 50 μg/mL cycloheximide during the incubation step of the EPISPOT assay
Protocol: EPISPOT assays. Immobilon-P membrane 96-well plates (MAIPN450, Millipore Corporation, Bedford, Mass.) were coated overnight at 4° C. with the anti-CK19 mAb Ks19.1 (6 μg/mL) (Progen Biotechnik GMBH, Heidelberg, […].). Unbound mAb were removed by washing three times with PBS. The plates were then blocked with PBS supplemented with 5% FCS (Sigma, Chemical Co., Saint Louis, Mo.) for 1 h at room temperature and washed three times with PBS. To block protein synthesis, cell lines were incubated with 50 μg/mL of cycloheximide during the EPISPOT assay. Subsequently, viable cells were counted in a Kovac slide with trypan blue dye exclusion staining and finally plated in three replicate wells at different concentrations (1×10^5, 1×10^4, 1×10^3, 1×10^2, 10 and 1 cells). In addition, 5×10^4 to 1×10^5 of enriched CD45^− cells (i) from blood and bone marrow of colon and breast cancer patients, respectively, (ii) from the milk of healthy lactating women (normal primary mammary cells) or (iii) from normal and tumor colon tissues were seeded in different wells of the plates. […] Immunospots were counted by video camera imaging and computer assisted analysis (KS ELISPOT, Carl Zeiss Vision, Halbermoos, Germany). […]

C[C@@H]1C[C@@H]([C@H](O)CC2CC(=O)NC(=O)C2)C(=O)[C@@H](C)C1 [cycloheximide]
size and number of CK19 immunospots (CK19-releasing cells): decrease in the size and the number of spots

Reference: US8524493B2, “Released cytokeratins as markers for epithelial cells” (Centre Hospitalier Universitaire de Montpellier, priority 2006, dated 2013)
